From PubChem BioAssay (NCI)
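Results reflect a 48-hour exposure of cells in 96-well plates to compound at five concentrations. The concentration for 50% growth inhibition is given as GI50. TGI: concentration producing complete growth inhibition.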

Tests used:
Assay in all cases: NCI tumour cell line growth inhibition, 48 h
[1] = tested on: EKVX NSCLC
[2] = tested on: RXF 393 renal
[3] = tested on: A498 renal
[4] = tested on: HCT-116 colon
[5] = tested on: K-562 leukemia
[6] = tested on: MDA-N
[7] = tested on: NCI-H226 lung
[8] = tested on: NCI-H23 lung
[9] = tested on: 786-0 renal
[10] = tested on: NCI/ADR-RES ovarian
[11] = tested on: PC-3 prostate
[12] = tested on: SF-268 CNS
[13] = tested on: U251 CNS
[14] = tested on: M14 melanoma
[15] = tested on: SW-620 colon
[16] = tested on: OVCAR-8 ovarian
[17] = tested on: A549 NSCLC
[18] = tested on: COLO 205 colon
[19] = tested on: NCI-H460 lung
[20] = tested on: UACC-257 melanoma
[21] = tested on: MALME-3M melanoma
[22] = tested on: SK-MEL-28 melanoma
[23] = tested on: SF-539 CNS
[24] = tested on: CCRF-CEM leukemia
[25] = tested on: HT29 colon
[26] = tested on: SN12C renal
[27] = tested on: HOP-62 NSCLC
[28] = tested on: MOLT-4 leukemia
[29] = tested on: UACC-62 melanoma
[30] = tested on: RPMI-8226 leukemia
[31] = tested on: ACHN renal
[32] = tested on: SF-295 CNS
[33] = tested on: KM12 colon
[34] = tested on: MDA-MB-231 breast
[35] = tested on: LOX IMVI melanoma
[36] = tested on: OVCAR-5 ovarian
[37] = tested on: OVCAR-4 ovarian
[38] = tested on: UO-31 renal
[39] = tested on: DU-145 prostate
[40] = tested on: MDA-MB-435
[41] = tested on: SK-MEL-2 melanoma
[42] = tested on: HCT-15 colon
[43] = tested on: HOP-92 NSCLC
[44] = tested on: MCF7 breast
[45] = tested on: SK-MEL-5 melanoma
[46] = tested on: HL-60(TB) leukemia
[47] = tested on: HCC-2998 colon
[48] = tested on: SNB-19 CNS
[49] = tested on: TK-10 renal
[50] = tested on: SK-OV-3 ovarian
[51] = tested on: OVCAR-3 ovarian
[52] = tested on: SR leukemia
[53] = tested on: HS 578T breast
[54] = tested on: BT-549 breast
[55] = tested on: T-47D breast
[56] = tested on: IGROV1 ovarian
[57] = tested on: CAKI-1 renal
[58] = tested on: NCI-H522 lung
[59] = tested on: SNB-75 CNS

Question: Which TGI [1] does the source give for `Cc1nc2c(O)cc3c4c(n(Cc5ccccc5)c3c2nc1C)C(=O)CCC4` here?
Answer: Its TGI is greater than 100 µM.

Question: And the TGI [2]?
Answer: The TGI was 32.2 µM.

Question: And the TGI [3]?
Answer: The TGI was greater than 100 µM.

Question: And the TGI [4]?
Answer: Its TGI is greater than 100 µM.

Question: And the TGI [5]?
Answer: Its TGI is greater than 100 µM.

Question: And the TGI [6]?
Answer: Its TGI is greater than 100 µM.

Question: What about the TGI [7] of the same molecule?
Answer: Its TGI is greater than 100 µM.

Question: And the TGI [8]?
Answer: The TGI was greater than 100 µM.

Question: What about the TGI [9] of the same molecule?
Answer: The TGI was 69.1 µM.

Question: And the TGI [10]?
Answer: The TGI was greater than 100 µM.

Question: What about the TGI [11] of the same molecule?
Answer: Its TGI is greater than 100 µM.

Question: What about the TGI [12] of the same molecule?
Answer: Its TGI is 50.9 µM.

Question: And the TGI [13]?
Answer: Its TGI is 64 µM.

Question: What about the TGI [14] of the same molecule?
Answer: The TGI was greater than 100 µM.

Question: What about the TGI [15] of the same molecule?
Answer: The TGI was greater than 100 µM.

Question: And the TGI [16]?
Answer: The TGI was 52.6 µM.

Question: What about the TGI [17] of the same molecule?
Answer: Its TGI is greater than 100 µM.

Question: What about the TGI [18] of the same molecule?
Answer: Its TGI is greater than 100 µM.

Question: And the TGI [19]?
Answer: The TGI was greater than 100 µM.

Question: What about the TGI [20] of the same molecule?
Answer: The TGI was greater than 100 µM.

Question: What about the TGI [21] of the same molecule?
Answer: Its TGI is greater than 100 µM.

Question: And the TGI [22]?
Answer: The TGI was 76.2 µM.

Question: And the TGI [23]?
Answer: The TGI was 48.1 µM.

Question: What about the TGI [24] of the same molecule?
Answer: The TGI was greater than 100 µM.

Question: What about the TGI [25] of the same molecule?
Answer: Its TGI is greater than 100 µM.

Question: And the TGI [26]?
Answer: The TGI was greater than 100 µM.

Question: And the TGI [27]?
Answer: The TGI was 39.9 µM.

Question: What about the TGI [28] of the same molecule?
Answer: Its TGI is greater than 100 µM.

Question: What about the TGI [29] of the same molecule?
Answer: The TGI was greater than 100 µM.

Question: What about the TGI [30] of the same molecule?
Answer: Its TGI is greater than 100 µM.

Question: And the TGI [31]?
Answer: Its TGI is greater than 100 µM.

Question: And the TGI [32]?
Answer: The TGI was greater than 100 µM.

Question: What about the TGI [33] of the same molecule?
Answer: The TGI was greater than 100 µM.

Question: And the TGI [34]?
Answer: The TGI was greater than 100 µM.

Question: What about the TGI [35] of the same molecule?
Answer: Its TGI is greater than 100 µM.

Question: And the TGI [36]?
Answer: Its TGI is greater than 100 µM.

Question: What about the TGI [37] of the same molecule?
Answer: Its TGI is 59.3 µM.

Question: And the TGI [38]?
Answer: The TGI was greater than 100 µM.

Question: And the TGI [39]?
Answer: The TGI was greater than 100 µM.

Question: What about the TGI [40] of the same molecule?
Answer: Its TGI is greater than 100 µM.

Question: And the TGI [41]?
Answer: Its TGI is 50.1 µM.

Question: And the TGI [42]?
Answer: The TGI was greater than 100 µM.

Question: And the TGI [43]?
Answer: Its TGI is 74 µM.

Question: What about the TGI [44] of the same molecule?
Answer: The TGI was greater than 100 µM.

Question: What about the TGI [45] of the same molecule?
Answer: The TGI was greater than 100 µM.

Question: And the TGI [46]?
Answer: The TGI was greater than 100 µM.

Question: What about the TGI [47] of the same molecule?
Answer: Its TGI is greater than 100 µM.

Question: What about the TGI [48] of the same molecule?
Answer: The TGI was greater than 100 µM.

Question: What about the TGI [49] of the same molecule?
Answer: The TGI was greater than 100 µM.

Question: What about the TGI [50] of the same molecule?
Answer: The TGI was 69.6 µM.

Question: What about the TGI [51] of the same molecule?
Answer: Its TGI is 83.2 µM.

Question: And the TGI [52]?
Answer: Its TGI is greater than 100 µM.

Question: And the TGI [53]?
Answer: Its TGI is greater than 100 µM.

Question: What does the source list for `N=c1n(Cc2ccccc2)c(N)cc(=O)n1Cc1ccccc1`?
Answer: GI50 [1]: 2.12 µM; TGI [1]: 5.42 µM; GI50 [2]: 1.87 µM; TGI [2]: 5.71 µM; GI50 [54]: 2.65 µM; TGI [54]: 10.3 µM; GI50 [3]: 5.04 µM; TGI [3]: 47.5 µM; GI50 [4]: 2.74 µM; TGI [4]: 10.7 µM; GI50 [5]: 3.82 µM; TGI [5]: > 100 µM; GI50 [55]: 3.01 µM; TGI [55]: 12.4 µM; GI50 [7]: 3.45 µM; TGI [7]: 9.56 µM; GI50 [8]: 1.48 µM; TGI [8]: 5.96 µM; GI50 [9]: 2.97 µM; TGI [9]: 9.76 µM; GI50 [10]: 2.33 µM; TGI [10]: 5.71 µM; GI50 [11]: 2.74 µM; TGI [11]: 19.9 µM; GI50 [12]: 1.37 µM; TGI [12]: 3.86 µM; GI50 [13]: 3.32 µM; TGI [13]: 11.7 µM; GI50 [14]: 4.72 µM; TGI [14]: 17.8 µM; GI50 [15]: 3.05 µM; TGI [15]: 11.1 µM; GI50 [16]: 3.18 µM; TGI [16]: 11.4 µM; GI50 [17]: 1.19 µM; TGI [17]: 2.56 µM; GI50 [18]: 3.97 µM; TGI [18]: 13.8 µM; GI50 [19]: 1.08 µM; TGI [19]: 2.75 µM; GI50 [20]: 3.1 µM; TGI [20]: 11 µM; GI50 [21]: 2.94 µM; TGI [21]: 6.87 µM; GI50 [22]: 3.58 µM; TGI [22]: 11.7 µM; GI50 [23]: 1.96 µM; TGI [23]: 4.25 µM; GI50 [24]: 1.63 µM; TGI [24]: 8.65 µM; GI50 [25]: 3.81 µM; TGI [25]: 12.8 µM; GI50 [26]: 1.34 µM; TGI [26]: 18.1 µM; GI50 [27]: 1.35 µM; TGI [27]: 2.68 µM; GI50 [28]: 1.24 µM; TGI [28]: 5.38 µM; GI50 [29]: 3.55 µM; TGI [29]: 12 µM; GI50 [30]: 3.58 µM; TGI [30]: 18.1 µM; GI50 [31]: 0.747 µM; TGI [31]: 5.25 µM; GI50 [32]: 2.68 µM; TGI [32]: 19.1 µM; GI50 [33]: 4.75 µM; TGI [33]: 29.3 µM; GI50 [34]: 7.45 µM; TGI [34]: 42.5 µM; GI50 [35]: 3.14 µM; TGI [35]: 10.9 µM; GI50 [36]: 4.27 µM; TGI [36]: 14.9 µM; GI50 [37]: 2.41 µM; TGI [37]: 10.5 µM; GI50 [38]: 2.35 µM; TGI [38]: 5.37 µM; GI50 [39]: 2.28 µM; TGI [39]: 6.47 µM; GI50 [40]: 3.54 µM; TGI [40]: 13.8 µM; GI50 [41]: 2.79 µM; TGI [41]: 7.18 µM; GI50 [42]: 3.49 µM; TGI [42]: 12.3 µM; GI50 [56]: 4.04 µM; TGI [56]: > 59.8 µM; GI50 [57]: 2.94 µM; TGI [57]: 16.6 µM; GI50 [43]: 2.06 µM; TGI [43]: 10 µM; GI50 [44]: 2.73 µM; TGI [44]: 18.4 µM; GI50 [45]: 1.9 µM; TGI [45]: 3.95 µM; GI50 [46]: 2.21 µM; TGI [46]: 4.93 µM; GI50 [47]: 4.96 µM; TGI [47]: 29.1 µM; GI50 [48]: 5.04 µM; TGI [48]: 18.2 µM; GI50 [58]: 0.503 µM; TGI [58]: 2.42 µM; GI50 [49]: 2.22 µM; TGI [49]: 7.47 µM; GI50 [59]: 3.08 µM; TGI [59]: 16.1 µM; GI50 [50]: 2.99 µM; TGI [50]: 8.44 µM; GI50 [51]: 3.34 µM; TGI [51]: 8.43 µM; GI50 [52]: 2.28 µM; TGI [52]: 7.53 µM; GI50 [53]: 1.04 µM
